# Experiment: Ex vivo biodistribution (gamma counter)
# Format: in vivo, healthy male C57BL/6 mice
# Conditions: Hg-197g, 2 h post administration
# Description: For animal injection, the tracer was prepared at high molar activity. Radiolabeling of H4Tetrathiol (10^–2 M in DMSO; 40 μL for imaging, 20 μL for bioD) (or DMSO, for [^197m/gHg]HgCl2 mice) with [^197m/gHg]HgCl2 (imaging: 26.7 MBq total m + g, 62 μL; bioD: 13.04 MBq total m + g, 31 μL) was performed in a mixture of ammonium acetate buffer (1 M; pH 7; 198 μL for imaging or 149 μL for bioD) and 6 M NaOH (72 μL or 38 μL required to achieve a pH of 7.5 after addition of activity, for imaging or BioD labeling, respectively). The reaction was allowed to stand for 1 h at 37 °C and quantitative (> 99%) non-isolated percentage radiochemical yield (%RCY) was confirmed via the iTLC methods mentioned above. Further, 100 µL of the reaction was diluted with 50 µL of PBS Tween-20 (0.01 M sodium phosphate, 0.15 M NaCl, 0.05% Tween-20) for imaging mice, or 50 µL of the reaction was diluted with 100 µL of PBS Tween-20 for BioD mice. The tracers were prepared immediately before injection to avoid radiolysis and minimize the tracer loss to any surfaces due to its lipophilicity. The injected doses of each isomer, ^197mHg and ^197gHg, were quantified by measuring an aliquot of known volume of each tracer preparation via HPGe gamma spectroscopy and decay corrected for time of injection using the Eqs. (1) and (2).
# The study was conducted in compliance with the guidelines set by the Canadian Council on Animal Care (CCAC) and approved by the Animal Care Committee (ACC) at the University of British Columbia (A20-0132). A total of eight healthy male C57BL/6 mice weighing approximately 30 g for group 1 and 25 g for group 2 were used in the study. The mice were divided into two experimental groups: group 1 (n = 4) received free [^197m/gHg]HgCl2, while group 2 (n = 4) received [^197m/gHg]Hg-Tetrathiol. Within each group, one mouse was allocated for imaging, while the rest were designated for ex vivo biodistribution analysis. For SPECT imaging, the designated mice were anesthetized using isoflurane via a precision vaporizer. […] Once anesthetized, each imaging mouse received an intravenous (IV) injection via the lateral tail vein of 150 μL of [^197m/gHg]HgCl2 (0.492 MBq ^197mHg + 3.171 MBq ^197gHg) or [^197m/gHg]Hg-Tetrathiol (0.899 MBq ^197mHg + 4.230 MBq ^197gHg) in PBS Tween-20 (0.01 M Na Phosphate, 0.15 M NaCl, 0.05% Tween-20).
# Mice received an IV injection of [^197m/gHg]HgCl2 (0.275 MBq ^197mHg + 1.758 MBq ^197gHg, 150 μL) or [^197m/gHg]Hg-Tetrathiol (0.384 MBq ^197mHg + 1.733 MBq ^197gHg, 150 μL) (n = 3 per group) via the lateral tail vein using a Tailveiner restrainer. After the injection, the mice were returned to their experimental cages and allowed unrestricted movement. Biodistribution studies were conducted 2 h after administration. Mice were humanely euthanized with an overdose of isoflurane followed by cardiac puncture to collect blood pool activity. The organs of interest were fully extracted, cleaned of blood without rinsing, weighed, and analysed for radioactivity using a calibrated gamma counter with the 55–93 keV energy window for ^197gHg and the 110–160 keV energy window for ^197mHg (Packard Cobra II, Perkin Elmer, Waltham, MA, USA). The stomach and intestines were carefully cleaned prior to analysis to remove residual contents. For tissues and fluids that could not be fully removed (muscle, blood and bone) activity values were extrapolated based on standardised organ weights for age- and sex-matched mice tables to ensure accurate normalization (Davies and Morris [1993]; Foster et al. [2014]). The stomach and whole intestines were cleaned before analysis. The radioactivity measurements were decay corrected for time of injection using the Eqs. (1) and (2). The results are reported as the percentage of the injected activity per gram of tissue (%IA/g) and percentage of the injected activity per tissue (%IA/organ).
smiles,measurement,value
[Cl][Hg][Cl] [[^197m/gHg]HgCl2],Animal 1 (%IA/Organ): bladder,0.10 %IA/Organ
same,Animal 1 (%IA/Organ): blood,7.19 %IA/Organ
same,Animal 1 (%IA/Organ): bone,4.96 %IA/Organ
same,Animal 1 (%IA/Organ): brain,0.08 %IA/Organ
same,Animal 1 (%IA/Organ): feces,0.04 %IA/Organ
same,Animal 1 (%IA/Organ): heart,0.39 %IA/Organ
same,Animal 1 (%IA/Organ): kidneys,51.84 %IA/Organ
same,Animal 1 (%IA/Organ): large intestine,0.85 %IA/Organ
same,Animal 1 (%IA/Organ): liver,11.53 %IA/Organ
same,Animal 1 (%IA/Organ): lungs,0.87 %IA/Organ
same,Animal 1 (%IA/Organ): muscle,12.34 %IA/Organ
same,Animal 1 (%IA/Organ): pancreas,0.32 %IA/Organ
same,Animal 1 (%IA/Organ): small intestine,0.99 %IA/Organ
same,Animal 1 (%IA/Organ): spleen,0.47 %IA/Organ
same,Animal 1 (%IA/Organ): stomach,0.29 %IA/Organ
same,Animal 1 (%IA/Organ): tail,4.00 %IA/Organ
same,Animal 1 (%IA/Organ): urine,1.57 %IA/Organ
same,Animal 1 (%IA/g) g: bladder,1.28 %IA/g
same,Animal 1 (%IA/g) g: blood,4.25 %IA/g
same,Animal 1 (%IA/g) g: bone,2.26 %IA/g
same,Animal 1 (%IA/g) g: brain,0.19 %IA/g
same,Animal 1 (%IA/g) g: feces,0.96 %IA/g
same,Animal 1 (%IA/g) g: heart,2.62 %IA/g
same,Animal 1 (%IA/g) g: kidneys,110 %IA/g
same,Animal 1 (%IA/g) g: large intestine,3.42 %IA/g
same,Animal 1 (%IA/g) g: lungs,5.68 %IA/g
same,Animal 1 (%IA/g) g: muscle,0.94 %IA/g
same,Animal 1 (%IA/g) g: pancreas,1.76 %IA/g
same,Animal 1 (%IA/g) g: small intestine,4.46 %IA/g
same,Animal 1 (%IA/g) g: spleen,5.78 %IA/g
same,Animal 1 (%IA/g) g: stomach,2.45 %IA/g
same,Animal 1 (%IA/g) g: tail,7.68 %IA/g
same,Animal 1 (%IA/g) g: urine,5.10 %IA/g
same,Animal 2 (%IA/Organ): bladder,0.06 %IA/Organ
same,Animal 2 (%IA/Organ): blood,5.88 %IA/Organ
same,Animal 2 (%IA/Organ): bone,4.05 %IA/Organ
same,Animal 2 (%IA/Organ): brain,0.04 %IA/Organ
same,Animal 2 (%IA/Organ): feces,0.02 %IA/Organ
same,Animal 2 (%IA/Organ): heart,0.21 %IA/Organ
same,Animal 2 (%IA/Organ): kidneys,44.76 %IA/Organ
same,Animal 2 (%IA/Organ): large intestine,0.60 %IA/Organ
same,Animal 2 (%IA/Organ): liver,6.34 %IA/Organ
same,Animal 2 (%IA/Organ): lungs,0.50 %IA/Organ
same,Animal 2 (%IA/Organ): muscle,6.72 %IA/Organ
same,Animal 2 (%IA/Organ): pancreas,0.22 %IA/Organ
same,Animal 2 (%IA/Organ): small intestine,0.66 %IA/Organ
same,Animal 2 (%IA/Organ): spleen,0.25 %IA/Organ
same,Animal 2 (%IA/Organ): stomach,0.18 %IA/Organ
same,Animal 2 (%IA/Organ): tail,2.34 %IA/Organ
same,Animal 2 (%IA/Organ): urine,0.04 %IA/Organ
same,Animal 2 (%IA/g) g: bladder,2.73 %IA/g
same,Animal 2 (%IA/g) g: blood,3.53 %IA/g
same,Animal 2 (%IA/g) g: bone,1.87 %IA/g
same,Animal 2 (%IA/g) g: brain,0.10 %IA/g
same,Animal 2 (%IA/g) g: feces,0.42 %IA/g
same,Animal 2 (%IA/g) g: heart,1.60 %IA/g
same,Animal 2 (%IA/g) g: kidneys,107 %IA/g
same,Animal 2 (%IA/g) g: large intestine,2.61 %IA/g
same,Animal 2 (%IA/g) g: liver,5.13 %IA/g
same,Animal 2 (%IA/g) g: lungs,3.11 %IA/g
same,Animal 2 (%IA/g) g: muscle,0.52 %IA/g
same,Animal 2 (%IA/g) g: pancreas,1.31 %IA/g
same,Animal 2 (%IA/g) g: small intestine,2.72 %IA/g
same,Animal 2 (%IA/g) g: spleen,3.43 %IA/g
same,Animal 2 (%IA/g) g: stomach,1.70 %IA/g
same,Animal 2 (%IA/g) g: tail,4.62 %IA/g
same,Animal 2 (%IA/g) g: urine,3.81 %IA/g
same,Animal 3 (%IA/Organ): bladder,0.03 %IA/Organ
same,Animal 3 (%IA/Organ): blood,5.49 %IA/Organ
same,Animal 3 (%IA/Organ): bone,3.89 %IA/Organ
same,Animal 3 (%IA/Organ): brain,0.05 %IA/Organ
same,Animal 3 (%IA/Organ): feces,0.09 %IA/Organ
same,Animal 3 (%IA/Organ): heart,0.20 %IA/Organ
same,Animal 3 (%IA/Organ): kidneys,46.92 %IA/Organ
same,Animal 3 (%IA/Organ): large intestine,0.43 %IA/Organ
same,Animal 3 (%IA/Organ): liver,6.61 %IA/Organ
same,Animal 3 (%IA/Organ): lungs,0.50 %IA/Organ
same,Animal 3 (%IA/Organ): muscle,6.84 %IA/Organ
same,Animal 3 (%IA/Organ): pancreas,0.25 %IA/Organ
same,Animal 3 (%IA/Organ): small intestine,0.62 %IA/Organ
same,Animal 3 (%IA/Organ): spleen,0.22 %IA/Organ
same,Animal 3 (%IA/Organ): stomach,0.18 %IA/Organ
same,Animal 3 (%IA/Organ): tail,2.23 %IA/Organ
same,Animal 3 (%IA/Organ): urine,0.63 %IA/Organ
same,Animal 3 (%IA/g) g: bladder,1.50 %IA/g
same,Animal 3 (%IA/g) g: blood,3.33 %IA/g
same,Animal 3 (%IA/g) g: bone,1.79 %IA/g
same,Animal 3 (%IA/g) g: brain,0.11 %IA/g
same,Animal 3 (%IA/g) g: feces,2.78 %IA/g
same,Animal 3 (%IA/g) g: heart,1.46 %IA/g
same,Animal 3 (%IA/g) g: kidneys,108 %IA/g
same,Animal 3 (%IA/g) g: large intestine,2.41 %IA/g
same,Animal 3 (%IA/g) g: liver,4.96 %IA/g
same,Animal 3 (%IA/g) g: lungs,3.44 %IA/g
same,Animal 3 (%IA/g) g: muscle,0.53 %IA/g
same,Animal 3 (%IA/g) g: pancreas,1.39 %IA/g
same,Animal 3 (%IA/g) g: small intestine,2.89 %IA/g
same,Animal 3 (%IA/g) g: spleen,2.94 %IA/g
same,Animal 3 (%IA/g) g: stomach,1.57 %IA/g
same,Animal 3 (%IA/g) g: tail,4.40 %IA/g
same,Animal 3 (%IA/g) g: urine,3.90 %IA/g
same,Animal 4 (%IA/Organ): bladder,0.07 %IA/Organ
same,Animal 4 (%IA/Organ): blood,4.67 %IA/Organ
same,Animal 4 (%IA/Organ): bone,3.74 %IA/Organ
same,Animal 4 (%IA/Organ): brain,0.05 %IA/Organ
same,Animal 4 (%IA/Organ): feces,0.07 %IA/Organ
same,Animal 4 (%IA/Organ): heart,0.21 %IA/Organ
same,Animal 4 (%IA/Organ): kidneys,49.72 %IA/Organ
same,Animal 4 (%IA/Organ): large intestine,0.41 %IA/Organ
same,Animal 4 (%IA/Organ): liver,6.62 %IA/Organ
same,Animal 4 (%IA/Organ): lungs,0.46 %IA/Organ
same,Animal 4 (%IA/Organ): muscle,6.43 %IA/Organ
same,Animal 4 (%IA/Organ): pancreas,0.20 %IA/Organ
same,Animal 4 (%IA/Organ): small intestine,0.54 %IA/Organ
same,Animal 4 (%IA/Organ): spleen,0.32 %IA/Organ
same,Animal 4 (%IA/Organ): stomach,0.17 %IA/Organ
same,Animal 4 (%IA/Organ): tail,1.77 %IA/Organ
same,Animal 4 (%IA/Organ): urine,0.38 %IA/Organ
same,Animal 4 (%IA/g) g: bladder,2.90 %IA/g
same,Animal 4 (%IA/g) g: blood,3.00 %IA/g
same,Animal 4 (%IA/g) g: bone,1.85 %IA/g
same,Animal 4 (%IA/g) g: brain,0.12 %IA/g
same,Animal 4 (%IA/g) g: feces,1.01 %IA/g
same,Animal 4 (%IA/g) g: heart,1.49 %IA/g

# — PMC12521730, “Quantitative dual-isotope preclinical SPECT/CT imaging and biodistribution of the mercury-197m/g theranostic pair with [^197m/gHg]HgCl2 and a [^197m/gHg]Hg-tetrathiol complex as a platform for radiopharmaceutical development” (EJNMMI Radiopharmacy and Chemistry, 2025)
